Reference: patent US20040077880A1 (priority 2000, published 2004)

System: not listed separately
Assay: logP determination by HPLC (EEC Directive 79/831 Annex V. A8)
Type: physicochemical
Conditions: gradient method, acetonitrile/0,1% aqueous phosphoric acid
Experimental: The logP values were determined in accordance with EEC Directive 79/831 Annex V. A8 by HPLC (Gradient method, acetonitrile/0,1% aqueous phosphoric acid)
Work on `Cc1noc(C)c1S(=O)(=O)n1c(C)c(Br)c(Br)c1C#N` [Example 1, 3,4-dibromo-1-[(3,5-dimethyl-4-isoxazolyl)-sulfonyl]-5-methyl-1H-pyrrole-2-carbonitrile] yielded a chromatographic logP of 3.62.
`Cc1noc(C)c1S(=O)(=O)n1c(Br)c(Br)c(Br)c1C#N` [Example 3] showed a chromatographic logP of 3.58.
`Cc1noc(C)c1S(=O)(=O)n1cc(Cl)c(Cl)c1C#N` [Example 11] gave a chromatographic logP of 3.13.

System: Phytophthora infestans
Assay: not given
Type: in vivo
Conditions: tomato plants, protective spray, application rate 50 g/ha, evaluation three days after inoculation; 100% = no infection
Work on `Cc1noc(C)c1S(=O)(=O)n1c(Br)c(Br)c(Br)c1C#N` [drawing 9] yielded an Efficacy in % of 98%.
Work on `Cc1noc(C)c1S(=O)(=O)n1cc(Cl)c(Cl)c1C#N` [drawing 10] yielded an Efficacy in % of 95%.
In the case of `Cc1noc(C)c1S(=O)(=O)n1cc(Cl)c(Cl)c1C#N` [drawing 11], the Efficacy in % is reported as 94%.
